Structures can show the parent of a compound that is named as a salt. Where two headings read alike, the source gives them in different places.
Key:
[1] = tested on: 4T1 cells; assay: In vitro cytotoxicity in 4T1 cells (MTS assay); assay type: cell-based, murine; conditions: 48 h
[2] = tested on: H460 cells; assay: In vitro cytotoxicity in H460 cells (MTS assay); assay type: cell-based, human
[3] = tested on: apoptosis/necrosis; assay: Apoptosis/necrosis analysis of cells treated with Carb and/or DTX; assay type: cell-based; conditions: 10 μM Carb and/or DTX
Protocol: Apoptosis/necrosis analysis was also performed on cells treated with 10 μM Carb and/or DTX by flow cytometry.

[4] = tested on: LL/2 lung cancer cells; assay: Cytotoxicity of Chol-PTX; assay type: cell-based
[5] = tested on: Panc02 cells; assay: In vitro cytotoxicity in Panc02 cells (MTS assay); assay type: cell-based, murine
Protocol: (§1) The cell viability was measured by MTS assay.

[6] = tested on: KPC cells; assay: In vitro cytotoxicity in KPC cells (MTS assay); assay type: cell-based, murine; conditions: 48 h
Protocol: as §1

[7] = tested on: MC38 cells; assay: In vitro cytotoxicity in MC38 cells; assay type: cell-based, murine
Protocol: (§2) The cell viability was measured by […].

[8] = tested on: CT26 cells; assay: In vitro cytotoxicity in CT26 cells; assay type: cell-based, murine
Protocol: as §2

[9] = biological target: albumin (Homo sapiens, UniProt P02768); assay: ITC binding to albumin
Text: (§3) LDL is the key transporter of cholesterol and cholesterol esters to peripheral cells. It was hypothesized that LDL would strongly bind to Chol-SN38 to enhance its delivery to tumors via LDLR-mediated endocytosis.

[10] = tested on: CT26 and MC38 cells; assay: In vitro cytotoxicity, values not assigned to one colon cancer cell line
[11] = tested on: LDL; assay: Isothermal titration calorimetry (ITC) binding to LDL
Protocol: as §3
Apparent LDL binding affinity of two control particles, OxPt NCP without chol and Chol-SN38 micelle (without the NCP core) was determined to understand which components of the particles bind to LDL.

[12] = tested on: lipoproteins; assay: Distribution in lipoproteins after incubation in rat plasma (NaBr gradient ultracentrifugation, LC-MS); conditions: 37° C., 3 h, Chol-SN38 measured for OxPt/SN38
Text: Lipoproteins were separated based on their densities by NaBr gradient ultracentrifugation.

[13] = tested on: LDL; assay: Binding kinetics to LDL in rat plasma at 37° C.; conditions: for binding to LDL: Chol-SN38 measured for Chol-SN38 and OxPt/SN38
[14] = Dynamic light scattering (DLS) of particles; assay type: physicochemical; conditions: DLS of OxPt/GEM-core nanoparticles made with the named Chol-disulfide prodrug
Protocol: Synthesis and characterization of OxPt/GEM/SN38 core-shell nanoparticle NCP particles with OxPt-bp and gemcitabine monophosphate (GMP) in the core and Chol-SN38 on the shell, referred to as “OxPt/GMP/SN38,” was synthesized in two steps. […] An aqueous solution of Zn(NO3)2 (60 mg, 600 mg/mL) was added to a 5 mL of 0.3M Triton X-100/1.5M 1-hexanol in cyclohexane and stirred vigorously for 5 min. The Zn(NO3)2-containing microemulsion was added dropwise to the OxPt-bp-containing microemulsion and stirred vigorously for 30 min at room temperature. After the addition of 10 mL ethanol, OxPt-bare was obtained by centrifugation at 11,628×g. The resulting pellet was washed twice with THF/ethanol and finally re-dispersed in THF. The loadings of OxPt in the particles were determined by ICP-MS (Agilent 7700x, Agilent Technologies, Santa Clara, California, United States of America) after digestion with nitric acid. The particle size and zeta potential were determined by dynamic light scattering using a Zetasizer (Nano ZS, Malvern, United Kingdom).

[15] = tested on: CT26 and MC38 cells; assay: cells; conditions: Mus musculus
[16] = tested on: apoptosis/necrosis; assay: Apoptosis/necrosis analysis by flow cytometry (Annexin V / PI); assay type: cell-based; conditions: for percentage of apoptosis: flow cytometry
Protocol: Apoptosis/necrosis analysis was also performed on OxPt and/or SN38 treated cells by flow cytometry.

[17] = tested on: CT26 and MC38 cells
[18] = Conversion of SN38-TMS to SN38 at pH 5.5 and 7.4; assay type: physicochemical; conditions: for SN38-TMS converted to SN38: pH=5.5, 37° C.
Protocol: SN38-TMS was incubated in acidic conditions mimicking endosomes at 37° C. At pH=5.5, 70% SN38-TMS was converted to SN38 in 24 h and 92% […] SN38-TMS was converted to SN38 in 48 h.

[19] = cited from earlier work
[20] = Panc02 cells, 48 h, read-out: IC50
[21] = MC38 cells, 48 h, for OxPt/SN38 the OxPt IC50, read-out: IC50
[22] = CT26 cells, 48 h, for OxPt/SN38 the OxPt IC50, read-out: IC50

Chain of albumin (P02768 25-609, species assumed): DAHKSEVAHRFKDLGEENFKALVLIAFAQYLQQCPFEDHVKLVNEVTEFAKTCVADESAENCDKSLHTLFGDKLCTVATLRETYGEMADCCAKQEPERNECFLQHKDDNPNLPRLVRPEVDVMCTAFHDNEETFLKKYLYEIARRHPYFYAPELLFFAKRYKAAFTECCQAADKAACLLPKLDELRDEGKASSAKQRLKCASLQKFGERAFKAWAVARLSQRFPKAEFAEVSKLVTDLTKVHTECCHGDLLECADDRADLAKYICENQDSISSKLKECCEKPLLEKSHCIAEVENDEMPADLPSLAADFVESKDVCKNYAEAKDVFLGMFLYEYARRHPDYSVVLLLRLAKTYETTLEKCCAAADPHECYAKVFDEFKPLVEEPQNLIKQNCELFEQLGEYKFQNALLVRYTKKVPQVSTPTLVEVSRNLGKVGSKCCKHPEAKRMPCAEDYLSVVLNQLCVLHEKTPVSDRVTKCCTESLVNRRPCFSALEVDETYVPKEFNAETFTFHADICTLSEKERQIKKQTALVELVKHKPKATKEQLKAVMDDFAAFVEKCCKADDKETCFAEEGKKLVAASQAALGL

## N.N.O=C([O-])C1(C(=O)[O-])CCC1.[Pt+2] [Carb, carboplatin]
[1]
  IC50: 0.91 µM
[2]; 48 h
  IC50: 3.9 µM
[3]
  percentage of apoptosis: 2.90%

## CC(=O)O[C@@]12CO[C@@H]1C[C@H](O)[C@@]1(C)C(=O)[C@H](O)C3=C(C)[C@@H](OC(=O)[C@H](OC(=O)OCOC(=O)CCC(=O)O[C@H]4CC[C@@]5(C)C(=CC[C@H]6[C@@H]7CC[C@H]([C@H](C)CCCC(C)C)[C@@]7(C)CC[C@@H]65)C4)[C@@H](NC(=O)OC(C)(C)C)c4ccccc4)C[C@](O)([C@@H](OC(=O)c4ccccc4)[C@H]21)C3(C)C [Chol-DTX, Cholesterol-Docetaxel]
[1]; Mus musculus
  IC50: 15.3 µM
[2]; Homo sapiens, NCI-H460, 48 h
  IC50: 11.4 µM

## CC(=O)O[C@H]1C(=O)[C@]2(C)[C@@H](OC(=O)OCOC(=O)CCC(=O)O[C@H]3CC[C@@]4(C)C(=CC[C@H]5[C@@H]6CC[C@H]([C@H](C)CCCC(C)C)[C@@]6(C)CC[C@@H]54)C3)C[C@H]3OC[C@@]3(OC(C)=O)[C@H]2[C@H](OC(=O)c2ccccc2)[C@]2(O)C[C@H](OC(=O)[C@H](O)[C@@H](NC(=O)c3ccccc3)c3ccccc3)C(C)=C1C2(C)C [Chol-PTX, Cholesterol-Paclitaxel]
[4]
  IC50: 3.95 µM

## CCc1c2c(nc3ccc(OC(=O)OCOC(=O)CCC(=O)O[C@H]4CC[C@@]5(C)C(=CC[C@H]6[C@@H]7CC[C@H]([C@H](C)CCCC(C)C)[C@@]7(C)CC[C@@H]65)C4)cc13)-c1cc3c(c(=O)n1C2)COC(=O)[C@@]3(CC)O[Si](C)(C)C [Chol-SN38, 7-ethyl-10-(((((cholest-5-en-3-oxy)-4-oxobutanoyl)oxy)methoxy)-carbonyl)oxyl-20-O-trimethylsilyl camptothecin]
[5]; Mus musculus, Panc02, 48 h
  IC50: 14.6 ± 4.87 µM
[6]; Mus musculus
  IC50: 3.18 ± 1.01 µM
[7]; Mus musculus, MC-38, 48 h, MC38 cells, 48 h, for OxPt/SN38 the OxPt IC50
  IC50: 10.2 ± 1.99 µM
[8]; Mus musculus, CT26, 48 h, CT26 cells, 48 h, for OxPt/SN38 the OxPt IC50
  IC50: 7.41 ± 1.03 µM
[9]
  Kd: 4440 µM
[10]
  cytotoxicity relative to irinotecan: 5-10 times
[11]
  Ka to LDL relative to binding affinity to albumin: > 2000 times
[11]; ITC, apparent Ka for the particle
  binding constant (Ka) to LDL: (4.97±0.24)×10^5 M^−1
[11]; protein LDL
  Binding affinity Ka: 49.7 ± 2.43 10^4 M^−1
[12]
  distribution in HDL: 5%
  distribution in LDL fraction: 86%
  distribution in VLDL: 9%
[13]
  time to reach equilibrium binding to LDL: ≤ 1 h
  binding to LDL: 74.5±3.6%

## CC[C@@]1(OC(=O)OCCSSCCOC(=O)O[C@H]2CC[C@@]3(C)C(=CC[C@H]4[C@@H]5CC[C@H]([C@H](C)CCCC(C)C)[C@@]5(C)CC[C@@H]43)C2)C(=O)OCc2c1cc1n(c2=O)Cc2cc3ccccc3nc2-1 [Chol-SS-CPT]
[14]
  PDI: 0.434
  Z-Average (nm): 263.2 nm

## CCc1c2c(nc3ccc(OC(=O)OC(C)(C)C)cc13)-c1cc3c(c(=O)n1C2)COC(=O)[C@@]3(CC)OC(=O)OCCSSCCOC(=O)O[C@H]1CC[C@@]2(C)C(=CC[C@H]3[C@@H]4CC[C@H]([C@H](C)CCCC(C)C)[C@@]4(C)CC[C@@H]32)C1 [Chol-SS-SN38-Boc]
[14]
  PDI: 0.211
  Z-Average (nm): 96.79 nm

## CCc1c2c(nc3ccc(OC(=O)OCCSSCCOC(=O)O[C@H]4CC[C@@]5(C)C(=CC[C@H]6[C@@H]7CC[C@H]([C@H](C)CCCC(C)C)[C@@]7(C)CC[C@@H]65)C4)cc13)-c1cc3c(c(=O)n1C2)COC(=O)[C@@]3(CC)O[Si](C)(C)C [Chol-SS-SN38]
[14]
  PDI: 0.38
  Z-Average (nm): 172.3 nm

## CC(=O)O[C@@]12CO[C@@H]1C[C@H](O)[C@@]1(C)C(=O)[C@H](O)C3=C(C)[C@@H](OC(=O)[C@H](O)[C@@H](NC(=O)OC(C)(C)C)c4ccccc4)C[C@@](O)([C@@H](OC(=O)c4ccccc4)[C@H]21)C3(C)C [DTX, docetaxel]
[1]; Mus musculus
  IC50: 4.7 µM
[2]; Homo sapiens, NCI-H460, 48 h
  IC50: 3.69 µM
[3]
  percentage of apoptosis: 3.30%

## Nc1ccn([C@@H]2O[C@H](CO)[C@@H](O)C2(F)F)c(=O)n1 [GEM, gemcitabine]
[5]; Mus musculus, Panc02 cells, 48 h, read-out: IC50
  IC50: 0.11 ± 0.03 µM
[6]; Mus musculus, KPC cells, read-out: IC50
  IC50: 0.67 ± 0.18 µM

## CCc1c2c(nc3ccc(OC(=O)N4CCC(N5CCCCC5)CC4)cc13)-c1cc3c(c(=O)n1C2)COC(=O)[C@]3(O)CC [Irinotecan, irinotecan]
[7]; Mus musculus, MC-38, 48 h, read-out: IC50
  IC50: 88.4 ± 7.48 µM
[8]; Mus musculus, CT26, 48 h, read-out: IC50
  IC50: 79.4 ± 6.94 µM
[15]
  IC50: ~80 µM

## O=C1[O][Pt]2([NH][C@@H]3CCCC[C@H]3[NH]2)[O]C1=O [OxPt, oxaliplatin]
[5]; [20]
  IC50: 14 ± 4.88 µM
[6]; KPC cells, read-out: IC50
  IC50: 5.94 ± 1.73 µM
[7]; [21]
  IC50: 11.4 ± 1.68 µM
[8]; [22]
  IC50: 9.11 ± 0.72 µM
[16]
  early apoptotic Annexin V+/PI− cells: 8.0±0.6%
  percentage of apoptosis: 12.1%

## CCc1c2c(nc3ccc(O)cc13)-c1cc3c(c(=O)n1C2)COC(=O)C3(CC)OC(=O)OC(C)(C)C (stereo not shown) [SN38-Boc, 20-O-Boc-SN38]
[17]; concentrations up to 300 μM
  cytotoxicity: no cytotoxicity

## CCc1c2c(nc3ccc(O)cc13)-c1cc3c(c(=O)n1C2)COC(=O)[C@@]3(CC)O[Si](C)(C)C [SN38-TMS, 20-O-Trimethylsilyl SN38]
[18]; pH 7.4, 24 h
  SN38 released from SN38-TMS: 26%
[18]; pH 7.4, 48 h
  SN38 released from SN38-TMS: 63%
[18]; 24 h
  SN38-TMS converted to SN38: 70%
[18]; 48 h
  SN38-TMS converted to SN38: 92%

## CCc1c2c(nc3ccc(O)cc13)-c1cc3c(c(=O)n1C2)COC(=O)[C@]3(O)CC [SN38]
[5]; [20]
  IC50: 0.17 ± 0.12 µM
[6]; KPC cells, read-out: IC50
  IC50: 0.3 ± 0.09 µM
[17]; cell line not stated
  IC50 of SN38: 0.086 µg/mL
[7]; [21]
  IC50: 0.24 ± 0.08 µM
[19]
  Log P: 3.37
[8]; [22]
  IC50: 0.22 ± 0.05 µM
[16]
  early apoptotic Annexin V+/PI− cells: 25.7±1.5%
  percentage of apoptosis: 34.8%
[12]
  distribution in HDL: 14%
  distribution in LDL fraction: 17%
  distribution in albumin fraction: 69%
[13]
  binding to LDL: 17.1±1.5%

## CC(C)CCC[C@@H](C)[C@H]1CC[C@H]2[C@@H]3CC=C4C[C@@H](O)CC[C@]4(C)[C@H]3CC[C@]12C [cholesterol]
[19]
  Log P: 7.02

## CCc1c2c(nc3ccc(OC(=O)N4CCC(N5CCCCC5)CC4)cc13)-c1cc3c(c(=O)n1C2)COC(=O)[C@]3(O)CC [irinotecan hydrochloride]
[19]
  Log P: −0.45

## gemcitabine monophosphate [GMP]
[5]; [20]
  IC50: 0.06 ± 0.02 µM
[6]; KPC cells, read-out: IC50
  IC50: 0.3 ± 0.07 µM

— patent publication US20240042045A1, “NANOPARTICLES CONTAINING MULTIPLE CLEAVABLE PRODUGS FOR CANCER THERAPY” (The University of Chicago, priority 2020, published 2024)
